These results are taken from patent publication US7129381B2, “Glucopyranosyloxybenzylbenzene derivatives, medicinal compositions containing the same and intermediates in the production thereof” (Kissei Pharmaceutical Co., Ltd., priority 2000, dated 2006).

The series concerns ICR mice. Description: Acute toxicity test. The conditions noted are these: 300 mg/kg subcutaneous, male ICR mice, 5 animals, observation for 24 hours. In kind it is in vivo. As for the experimental part:
A mixture (saline:polyethylene glycol 400:ethanol =5:4:1) was added to a test compound to prepare 30 mg/mL solution. As experimental animals, 5 week old male ICR mice (CLEA JAPAN, INC. 29–35 g, 5 animals in each group), which were fasted for 4 hours, were used. The above solution was subcutaneously administered at a dose of 10 mL/kg (300 mg/kg) to the above experimental animals and then observation for 24 hours was performed.

The structures appear in SMILES notation.

Consider `COc1ccc(Cc2c(C)cc(C)cc2O[C@@H]2O[C@H](CO)[C@@H](O)[C@H](O)[C@H]2O)cc1` [Example 37, 2-(4-Methoxybenzyl)-3,5-dimethylphenyl β-D-glucopyranoside], for which the Death number was 0/5.
